Results on eight compounds are retold here after patent US20050267156A1, “Broadspectrum 2-amino-benzothiazole sulfonamide hiv protease inhibitors” (Tibotec Pharmaceuticals Ltd., priority 2002, published 2005).

What all share (type): cell-based
For data set [1], the system named is mutant HIV strain E. The data set is described as follows: microbe, parasite or virus in culture. The conditions noted are these: for fold resistance Strain E: FR=EC50 (mutant strain)/EC50 (HIV-1 strain LAI); for EC50: Human immunodeficiency virus 1, MT4, read-out: pEC50 Strain E, mutant HIV strain E, MT4 cells (converted). How it is done:
(§1) HIV- or mock-infected MT4 cells were incubated for five days in the presence of various concentrations of the inhibitor. […] Cell viability is measured by measuring the concentration of MTT, a yellow, water soluble tetrazolium dye that is converted to a purple, water insoluble formazan in the mitochondria of living cells only. Upon solubilization of the resulting formazan crystals with isopropanol, the absorbance of the solution is monitored at 540 nm. The values correlate directly to the number of living cells remaining in the culture at the completion of the five-day incubation. The inhibitory activity of the compound was monitored on the virus-infected cells and was expressed as EC50 and EC90. These values represent the amount of the compound required to protect 50% and 90%, respectively, of the cells from the cytopathogenic effect of the virus. […] The selectivity index (SI) (ratio CC50/EC50) is an indication of the selectivity of the anti-HIV activity of the inhibitor. Wherever results are reported as e.g. pEC50 or pCC50 values, the result is expressed as the negative logarithm of the result expressed as EC50 or CC50 respectively.

Data set [2] relates to mutant HIV strain D. In words: microbe, parasite or virus in culture. Conditions: for fold resistance Strain D: FR=EC50 (mutant strain)/EC50 (HIV-1 strain LAI); for EC50: Human immunodeficiency virus 1, MT4, read-out: pEC50 Strain D, mutant HIV strain D, MT4 cells (converted). How it is done: as §1
For data set [3], the system named is mutant HIV strain F. In words: microbe, parasite or virus in culture. Conditions: for fold resistance Strain F: FR=EC50 (mutant strain)/EC50 (HIV-1 strain LAI); for EC50: Human immunodeficiency virus 1, MT4, read-out: pEC50 Strain F, mutant HIV strain F, MT4 cells (converted). As to the method: as §1
Data set [4] deals with mutant HIV strain B. In words: microbe, parasite or virus in culture. The conditions noted are these: for fold resistance Strain B: FR=EC50 (mutant strain)/EC50 (HIV-1 strain LAI); for EC50: Human immunodeficiency virus 1, MT4, read-out: pEC50 Strain B, mutant HIV strain B, MT4 cells (converted). How it is done: as §1
For data set [5], the system named is mutant HIV strain A. In words: microbe, parasite or virus in culture. Conditions: for fold resistance Strain A: FR=EC50 (mutant strain)/EC50 (HIV-1 strain LAI); for EC50: Human immunodeficiency virus 1, MT4, read-out: pEC50 Strain A, mutant HIV strain A, MT4 cells (converted). How it is done: as §1
Data set [6] deals with mutant HIV strain C. In words: microbe, parasite or virus in culture. Conditions: for fold resistance Strain C: FR=EC50 (mutant strain)/EC50 (HIV-1 strain LAI); for EC50: Human immunodeficiency virus 1, MT4, read-out: pEC50 Strain C, mutant HIV strain C, MT4 cells (converted). How it is done: as §1
Data set [7] relates to HIV-1 strain LAI. In words: Cellular anti-HIV assay (MT4/MTT), wild type. Conditions: MT4 cells, read-out: WT (pEC50) (converted). How it is done:
as §1, with “The compounds of the present invention were examined for anti-viral activity in a cellular assay. […] The cellular assay was performed according to the following procedure. HIV-” for “HIV-”

A short description of data set [8]: Toxicity on mock-infected cells (MTT). The conditions noted are these: human. How it is done: HIV- or mock-infected MT4 cells were incubated for five days in the presence of various concentrations of the inhibitor. At the end of the incubation period, the replicating virus in the control cultures has killed all HIV-infected cells in the absence of any inhibitor. Cell viability is measured by measuring the concentration of MTT, a yellow, water soluble tetrazolium dye that is converted to a purple, water insoluble formazan in the mitochondria of living cells only. Upon solubilization of the resulting formazan crystals with isopropanol, the absorbance of the solution is monitored at 540 nm. The values correlate directly to the number of living cells remaining in the culture at the completion of the five-day incubation. The inhibitory activity of the compound was monitored on the virus-infected cells and was expressed as EC50 and EC90. These values represent the amount of the compound required to protect 50% and 90%, respectively, of the cells from the cytopathogenic effect of the virus. […] The selectivity index (SI) (ratio CC50/EC50) is an indication of the selectivity of the anti-HIV activity of the inhibitor. Wherever results are reported as e.g. pEC50 or pCC50 values, the result is expressed as the negative logarithm of the result expressed as EC50 or CC50 respectively.

The mark [9] stands for this setting: Human immunodeficiency virus 1, wild type HIV-1 strain LAI.
The mark [10] stands for this setting: Human immunodeficiency virus 1, MT4, wild type HIV-1 strain LAI.

Where a name gives a salt, the structure may show the parent alone. Read-outs that look alike come from different tables or passages of the source.

Take `CC(C)CN(C[C@@H](O)[C@H](Cc1ccccc1)NC(=O)OCc1cncs1)S(=O)(=O)c1ccc2nc(N)sc2c1` [Compound 3, {(1S,2R)-3-[(2-amino-benzothiazole-6-sulfonyl)-isobutyl-amino]-1-benzyl-2-hydroxypropyl}-carbamic acid thiazol-5-ylmethyl ester]: in data set [1], the “fold resistance Strain E” value stood at 4.8 and the EC50 was 21.9 nM. For the same compound, in data set [2], the “fold resistance Strain D” value amounted to 7.9 and the EC50 was 36.3 nM. In data set [3], the “fold resistance Strain F” value came out at 11.7 and the EC50 is 53.7 nM. Also, in data set [4], the “fold resistance Strain B” value is reported as 1.9 and the EC50 was 8.91 nM. In data set [5], the “fold resistance Strain A” value worked out at 6.6 and the EC50 is 30.2 nM. Further, in data set [6], the “fold resistance Strain C” value was determined as 3.4 and the EC50 is 15.5 nM. Besides, the EC50 in data set [7] (setting [9]) is 4.57 nM. The compound also showed a CC50 at 5 days in data set [8] of 74100 nM.

As to `CC(C)CN(C[C@@H](O)[C@H](Cc1ccccc1)NC(=O)OC1COC2OCCC12)S(=O)(=O)c1ccc2nc(N(C)C)sc2c1` (stereo partly drawn) [Compound 6, {(1S,2R)-1-benzyl-3-[(2-dimethylamino-benzothiazole-6-sulfonyl)-isobutyl-amino]-2-hydroxy-propyl}-carbamic acid hexahydro-furo[2,3-b]furan-3-yl ester], in data set [2], the “fold resistance Strain D” value is reported as 27.5 and the EC50 was 110 nM. In addition, in data set [3], the “fold resistance Strain F” value is listed as 177.8 and the EC50 was 708 nM. Further, in data set [4], the “fold resistance Strain B” value amounted to 32.4 and the EC50 is 129 nM. In addition, in data set [5], the “fold resistance Strain A” value is 50.1 and the EC50 was 200 nM. In data set [6], the “fold resistance Strain C” value turned out to be 8.5 and the EC50 was 33.9 nM. Also, the EC50 in data set [7] (setting [9]) is 3.98 nM. This compound also gave a CC50 at 5 days in data set [8] greater than 100000 nM.

In the case of `CC(C)CN(C[C@@H](O)[C@H](Cc1ccccc1)NC(=O)OCc1cccnc1)S(=O)(=O)c1ccc2nc(N)sc2c1` [Compound 9, {(1S,2R)-3-[(2-amino-benzothiazole-6-sulfonyl)-isobutyl-amino]-1-benzyl-2-hydroxypropyl}-carbamic acid pyridin-3-ylmethyl ester], in data set [1], the “fold resistance Strain E” value is 4.9 and the EC50 was 24 nM. Moreover, in data set [2], the “fold resistance Strain D” value came out at 8.5 and the EC50 was 41.7 nM. For the same compound, in data set [4], the “fold resistance Strain B” value amounted to 1.1 and the EC50 is 5.62 nM. Besides, in data set [5], the “fold resistance Strain A” value is recorded as 53.7 and the EC50 was 263 nM. For the same compound, in data set [6], the “fold resistance Strain C” value was found to be 1000.0 and the EC50 was 4900 nM. Further, the EC50 in data set [7] (setting [9]) was 4.9 nM. In data set [8], this compound had a CC50 at 5 days of 51300 nM.

As to `CC(C)CN(C[C@@H](O)[C@H](Cc1ccccc1)NC(=O)OC1CCOC1)S(=O)(=O)c1ccc2nc(N)sc2c1` (stereo partly drawn) [Compound 12, {(1S,2R)-3-[(2-amino-benzothiazole-6-sulfonyl)-isobutyl-amino]-1-benzyl-2-hydroxypropyl}-carbamic acid tetrahydro-furan-3-yl ester], in data set [1], the “fold resistance Strain E” value is on record as 1.8 and the EC50 is 7.76 nM. Moreover, in data set [2], the “fold resistance Strain D” value is reported as 6.2 and the EC50 is 26.3 nM. Also, in data set [4], the “fold resistance Strain B” value is reported as 1.8 and the EC50 is 7.59 nM. Moreover, in data set [5], the “fold resistance Strain A” value is recorded as 53.7 and the EC50 is 229 nM. In data set [6], the “fold resistance Strain C” value is reported as 44.7 and the EC50 is 191 nM. Besides, the EC50 in data set [7] (setting [9]) was 4.27 nM. This compound had a CC50 at 5 days in data set [8] greater than 100000 nM.

On to `Cc1ccccc1C(=O)N[C@@H](Cc1ccccc1)[C@H](O)CN(CC(C)C)S(=O)(=O)c1ccc2nc(N)sc2c1` [Compound 14, N-{(1S,2R)-3-[(2-amino-benzothiazole-6-sulfonyl)-isobutyl-amino]-1-benzyl-2-hydroxypropyl}-2-methyl-benzamide], for which, in data set [1], the “fold resistance Strain E” value turned out to be 7.9 and the EC50 was 30.2 nM. Moreover, in data set [2], the “fold resistance Strain D” value is given as 10.5 and the EC50 was 39.8 nM. In data set [4], the “fold resistance Strain B” value was 7.1 and the EC50 was 26.9 nM. In data set [5], the “fold resistance Strain A” value amounted to 234.4 and the EC50 is 891 nM. Besides, in data set [6], the “fold resistance Strain C” value is listed as 46.8 and the EC50 was 178 nM. For the same compound, the EC50 in data set [7] (setting [9]) is 3.8 nM. Further, the CC50 at 5 days in data set [8] was 46800 nM.

Regarding `CNc1nc2ccc(S(=O)(=O)N(CC(C)C)C[C@@H](O)[C@H](Cc3ccccc3)NC(=O)OCc3cncs3)cc2s1.O=C(O)C(F)(F)F` [Compound 19, {(1S,2R)-1-benzyl-2-hydroxy-3-[isobutyl-(2-methylamino-benzothiazole-6-sulfonyl)-amino]-propyl}-carbamic acid thiazol-5-ylmethyl ester trifluoroacetate], the “pEC50 Strain E” value in data set [1] (mutant HIV strain E, MT4 cells) was found to be 7.90. The “pEC50 Strain D” value in data set [2] (mutant HIV strain D, MT4 cells) was found to be 7.43. Besides, the “pEC50 Strain F” value in data set [3] (mutant HIV strain F, MT4 cells) is 6.80. Further, in data set [4] (mutant HIV strain B, MT4 cells), the “pEC50 Strain B” value was found to be 7.80. Also, the “pEC50 Strain A” value in data set [5] (mutant HIV strain A, MT4 cells) is reported as 7.36. Besides, the “pEC50 Strain C” value in data set [6] (mutant HIV strain C, MT4 cells) came out at 7.88. Further, the EC50 in data set [7] (setting [10]) was 3.09 nM.

With `CNc1nc2ccc(S(=O)(=O)N(CC(C)C)C[C@@H](O)[C@H](Cc3ccccc3)NC(=O)c3cccc(O)c3C)cc2s1` [Compound 23, N-{(1S,2R)-1-benzyl-2-hydroxy-3-[isobutyl-(2-methylamino-benzothiazole-6-sulfonyl)-amino]-propyl}-3-hydroxy-2-methyl-benzamide trifluoroacetate], the EC50 is 7.24 nM in data set [1]; 21.4 nM in data set [2]; 9.55 nM in data set [4]; 288 nM in data set [5]; 8.71 nM in data set [6]; 4.57 nM in data set [7] (setting [10]). For the same compound, the CC50 at 5 days in data set [8] is 69200 nM.

`CNc1nc2ccc(S(=O)(=O)N(CC(C)C)C[C@@H](O)[C@H](Cc3ccccc3)NC(=O)COc3c(C)cc(N)cc3C)cc2s1` [Compound 26, 2-(4-amino-2,6-dimethyl-phenoxy)-N-{(1S,2R)-1-benzyl-2-hydroxy-3-[isobutyl-(2-methylamino-benzothiazole-6-sulfonyl)-amino]-propyl}-acetamide]: in data set [1], the “fold resistance Strain E” value amounted to 2.3 and the EC50 is 6.17 nM. In data set [2], the “fold resistance Strain D” value is 3.1 and the EC50 is 8.32 nM. For the same compound, in data set [3], the “fold resistance Strain F” value worked out at 20.9 and the EC50 is 56.2 nM. Moreover, in data set [4], the “fold resistance Strain B” value was 1.5 and the EC50 is 3.98 nM. Besides, in data set [5], the “fold resistance Strain A” value was 11.2 and the EC50 is 30.2 nM. For the same compound, in data set [6], the “fold resistance Strain C” value came to 2.7 and the EC50 was 7.24 nM. In addition, in data set [7] (setting [9]), the EC50 is 2.69 nM.
